“Also recorded” adds a separate entry of the source.
How the values were obtained:
[1] = test system: HUVEC; assay: Cytotoxicity to HUVEC; type: cell-based, human; conditions: same concentrations as in the angiogenesis inhibition
[2] = test system: chorioallantoic membranes at 4.5-day old chick embryo; assay: Chorioallantoic membrane (CAM) assay, inhibition of angiogenesis in vivo; conditions: positive eggs/used eggs × 100%
Protocol: Chorioallantoic membrane (CAM) assay was used to measure whether the two isocoumarin derivatives are effective to inhibit angiogenesis in vivo. Fertilized chick eggs were kept in a humidified incubator at 37° C. After 3 days incubation, egg albumin were removed with hypodermic needle to allow CAM and yolk sac to drop away from the shell membrane. On day 3.5, the shell was punched out and removed to be a circular window and the shell membrane was removed. For testing of angiogenesis inhibition, a pieces of thermanox coverslip was coated with various concentration of the isocoumarin derivatives. The thermanox coverslip was placed on the chorioallantoic membranes at 4.5-day old chick embryo. After 2 days incubation at 37° C., 10% fat emulsion was injected into chorioallantois and observed blood vessel formation during an embryogenesis or development procedure. As a positive control, retinoic acid was used and non-treated coverslip for negative control.
Chorioallantoic membrane (CAM) assay was used to measure whether the two compounds obtained in Example 1 are effective to inhibit angiogenesis in vivo. Fertilized chick eggs were kept in a humidified incubator at 37° C. After 3 days incubation, about 2 ml of egg albumin were removed with hypodermic needle to allow CAM and yolk sac to drop away from the shell membrane. On day 3.5, the shell was punched out and removed to be a circular window and the shell membrane was removed. For testing of angiogenesis inhibition, a pieces of thermanox coverslip was coated with the isocoumarin derivatives dissolved in ethanol at concentration of 1, 5 and 10 μg/coverslip and the ethanol was evaporated. The thermanox coverslip were placed on the chorioallantoic membranes at 4.5-day old chick embryo. After 2 days incubation at 37° C., 1-2 ml of 10% fat emulsion was injected into chorioallantois and observed blood vessel formation during an embryogenesis or development procedure under a microscope. As a positive control, 1 μg/egg of retinoic acid was used and a negative control was non-treated. coverslip.

[3] = Acute toxicity test with rat; conditions: in vivo, 300 mg/kg; for Death and clinical symptoms / Toxic signs in weight change, serologic test, serobiochemical test, corpse examination: po; for LD50: rat, SD-rats, single oral administration, read-out: lethal dose (LD50)
Protocol: Specific pathogen-free (SPF) SD-rats (six weeks old) were used for the test of acute toxicity. Suspensions of the compounds of formulae 2 and 3 in 0.5% methyl cellulose were orally administered once at a dose of 300 mg/kg/10 ml to the rats. After the administration, the animals were observed as to their death, clinical symptoms and weight change, and serological and serobiochemically tested. An autopsy was made over the rats with the naked eye to observe whether their abdominal and thoracic organs were damaged. […] The compounds tested caused no toxic changes rats over the rats to the dose of 300 mg/lkg and thus, found to be safe compounds with a lethal dose (LD50) of at least 300 mg/kg when being administered via an oral route.

[4] = test system: human umbilical vein endothelial cells (HUVEC); assay: Inhibition of tube formation in human endothelial cells on Matrigel; type: cell-based; conditions: for inhibition at 0.5 µg/mL: 0.5 μg/ml; for inhibition at 1 µg/mL: 1.0 μg/ml
From the text: In order to determine the inhibitory effect of the isocoumarin derivatives against the angiogenesis, in vitro, endothelial cells, HUVEC (human umbilical vein endothelial cell) are selected. Under a specific culture condition, endothelial cells are migrated and differentiated into capillary tubes. Similar to the angiogenesis in vivo, the tube formation assay may be a good model to determine the influence of the isocoumarin derivatives on angiogenesis.
Various concentrations of the two isocoumarin derivatives are added to endothelial cells to monitor under a microscope whether the isocoumarin derivatives inhibited the differentiation of endothelial cells into capillary tubes. From this experiment, the two isocoumarin derivatives are found to inhibit the angiogenesis in concentration-dependent manners. […] However, the differentiation of HUVEC into a capillary tube is inhibited by 6,8-dihydroxy-4-acetyl-isocoumarin down to the concentration of as low as 0.2 μg/ml.
To determine the inhibitory effect of the two compounds obtained in Example 1 on the angiogenesis in vitro, human umbilical vein endothelial cells (HUVEC) were used as a model on the basis that they are migrated and differentiated into capillary tubes on Matrigel HUVEC was cultured in a gelatin-coated culture flask with an M199 medium supplemented with 20% FBS, 2 ng/ml bFGF and 100 μg/ml heparin at 37° C. incubator in a humidified atmosphere containing 5% CO2. The cultured HUVEC were treated with trypsin/EDTA to make a single cell suspension, the cells were plated on Matrigel coated 96-well plates with an M199 medium supplemented with 20% FBS, 2 ng/ml bFGF and 100 μg/ml heparin) at a density of 2×10^4 cells/well. The two compounds obtained in Example 1 were independently added at various concentrations into the wells and the plate was incubated for 18-48 hours in a CO2 incubator. The formation of capillary-like tube was monitored under a microscope during the incubation. The cells in the well containing vehicle (DMSO) became to be robuster and longer hollow tube networks as incubation time went on, but the tubes in the wells containing samples were broken and shortened. The inhibitory activity against tube formation was compared with control by measuring the length of the capillary tubes formed.

[5] = Homo sapiens, length of capillary tubes vs control, read-out: Inhibitory activity (%) against tube formation

SMILES | Cytotoxicity to HUVEC [1] | Inhibition rate (%) ([2]; 1 μg/egg) | Inhibition rate (%) ([2]; 5 μg/egg) | Inhibition rate (%) ([2]; 10 μg/egg) | Inhibition rate (%) ([2]; 10 μg/egg, listed as 6,8-dihydroxy-4-(1-hydroxyetyl)-isocoumarin) | Death and clinical symptoms [3] | Toxic signs in weight change, serologic test, serobiochemical test, corpse examination [3] | LD50 [3] | Lowest concentration still inhibiting differentiation of HUVEC into capillary tubes [4] | inhibition at 0.5 µg/mL [4, 5] | inhibition at 1 µg/mL [4, 5] | inhibition at 4 µg/mL ([4]; Homo sapiens, 4 μg/ml, length of capillary tubes vs control, read-out: Inhibitory activity (%) against tube formation) | inhibition at 10 µg/mL ([4]; Homo sapiens, 10 μg/ml, length of capillary tubes vs control, read-out: Inhibitory activity (%) against tube formation) | inhibition at 0.05 µg/mL ([4]; Homo sapiens, 0.05 μg/ml, length of capillary tubes vs control, read-out: Inhibitory activity (%) against tube formation) | inhibition at 0.2 µg/mL ([4]; Homo sapiens, 0.2 μg/ml, length of capillary tubes vs control, read-out: Inhibitory activity (%) against tube formation)
CC(O)c1coc(=O)c2c(O)cc(O)cc12 (centres unmarked) [6,8-dihydroxy-4-(1-hydroxyethyl)-isocoumarin] | did not show cytotoxicity | 27.3% | 66.7% | 83.3% | 78.6% | Neither sudden death nor noticeable clinical symptoms were detected | no toxic signs were observed | ≥ 300 mg/kg | 4 µg/mL | 0% | 0% | 60% | 100% |  | 
CC(=O)c1coc(=O)c2c(O)cc(O)cc12 [6,8-dihydroxy-4-acetyl-isocoumarin] | no cytotoxicity; also recorded: did not show cytotoxicity | 50.0% | 83.3% | 93.3% |  | Neither sudden death nor noticeable clinical symptoms were detected | no toxic signs were observed | ≥ 300 mg/kg | 0.2 µg/mL | 85% | 100% |  |  | 0% | 50%
CC1=C(/C=C/C(C)=C/C=C/C(C)=C/C(=O)O)C(C)(C)CCC1 [retinoic acid, reference compound] |  | 79.2% |  |  |  |  |  |  |  |  |  |  |  |  | 

From patent US6451846B1, “Isocoumarin derivatives inhibiting angiogenesis” (Korea Research Institute of Bioscience and Biotechnology, priority 1999, dated 2002)
